Measurements as given in patent US20230391788A1 (NAVIN SAXENA RESEARCH & TECHNOLOGY PVT. LTD., priority 2020, published 2023).

Key:
[1] = after oral dosing; cited from earlier work
[2] = Storage stability of naltrexone decanoate; type: physicochemical; settings: storage condition of less than 25° C.

| SMILES | time at which peak plasma levels occur [1] | period over which stable [2] |
| --- | --- | --- |
| O=C1CC[C@@]2(O)[C@H]3Cc4ccc(O)c5c4[C@@]2(CCN3CC2CC2)[C@H]1O5 [naltrexone, Naltrexone, reference compound] | one |  |
| CCCCCCCCCC(=O)Oc1ccc2c3c1O[C@H]1C(=O)CC[C@@]4(O)[C@@H](C2)N(CC2CC2)CC[C@]314 [naltrexone decanoate, 17-(cyclopropylmethyl)-4,5-epoxy-14-hydroxy-3-[(1-oxodecyl)oxy]-(5α)-morphinan-6-one] |  | ≤ 60 months |
| Oc1ccc2c3c1O[C@H]1[C@H](O)CC[C@@]4(O)[C@@H](C2)N(CC2CC2)CC[C@]314 [6-β-naltrexol] | one |  |
